IC50 data for 36 molecules are collected here from patent US8987249B2, “Substituted 2-Aza-bicyclo[2.2.1]heptane-3-carboxylic acid (benzyl-cyano-methyl)-amides inhibitors of Cathepsin C” (Boehringer Ingelheim International GmbH, priority 2013, dated 2015).

The target of test [1] is recombinant human DPPI (Cathepsin C) (Homo sapiens (Human), UniProt P53634). Briefly: Inhibition of human DPPI (Cathepsin C). As to conditions: substrate Gly-Arg-AMC. Type of test: biochemical. Here is the method: Inhibition of Human DPPI (Cathepsin C)
Bovine serum albumin (BSA; Prod. No. A3059) and Dithiothreitol (DTT; Prod. No D0632) were from Sigma. […] The DPP1 inhibitor Gly-Phe-DMK was purchased from MP Biomedicals (Prod.-No. 03DK00625). The recombinant human DPPI was purchased from Prozymex. All other materials were of highest grade commercially available.
The following buffers were used: MES buffer: 25 mM MES, 50 mM NaCl, 5 mM DTT, adjusted to pH 6.0, containing 0.1% BSA; TAGZyme Buffer: 20 mM NaH2PO4, 150 mM NaCl adjusted to pH 6.0 with HCl
Then, 5 μL of substrate in MES buffer (final concentration 50 μM) were added. The microtiter plates were then incubated at room temperature for 30 min. Then, the reaction was stopped by adding 10 μL of Gly-Phe-DMK in MES-buffer (final concentration 1 μM).
The analysis of the data was performed by calculating the percentage of fluorescence in the presence of test compound in comparison to the fluorescence of the vehicle control after subtracting the background fluorescence using the following formula: (RFU(sample)−RFU(background))*100/(RFU(control)−RFU(background))
Data from these calculations were used to generate IC50 values for inhibition of DPPI, respectively.

Test [2] deals with recombinant human Cathepsin K (Homo sapiens (Human), UniProt P43235). Briefly: Inhibition of human Cathepsin K. The class given is biochemical. The note with it: substrate Z-Gly-Pro-Arg-AMC. The source says:
Inhibition of Human Cathepsin K
Materials: Microtiterplates (Optiplate-384 F were purchased from PerkinElmer (Prod. No. 6007270). The substrate Z-Gly-Pro-Arg-AMC was from Biomol (Prod.-No. P-142). L-Cysteine (Prod. No. 168149) was from Sigma. Sodium acetate was from Merck (Prod.-No. 6268.0250), EDTA was from Fluka (Prod.-No. 03680). The inhibitor E-64 was purchased from Sigma (Prod.-No. E3132). The recombinant human Cathepsin K proenzyme was purchased from Biomol (Prod. No. SE-367). All other materials were of highest grade commercially available.
The following buffers were used: Activation buffer: 32.5 mM sodium acetate, adjusted to pH 3.5 with HCl; Assay buffer: 150 mM sodium acetate, 4 mM EDTA, 20 mM L-Cysteine, adjusted to pH 5.5 with HCl,
To activate the proenzyme, 5 μl procathepsin K were mixed with 1 ul activation buffer, and incubated at room temperature for 30 min.
5 μL test compound (final concentration 0.1 nM to 100 μM) in aqua bidest (containing 4% DMSO, final DMSO concentration 1%) were mixed with 10 uL of Cathepsin K in assay buffer (final concentration 2 ng/μL) and incubated for 10 min. […] The plates were then incubated at room temperature for 60 min. Then, the reaction was stopped by adding 10 μL of E64 in assay buffer (final concentration 1 μM). The fluorescence in the wells was determined using a Molecular Devices SpectraMax M5 Fluorescence Reader (Ex 360 nm, Em 460 nm).
Each assay microtiter plate contains wells with vehicle controls (1% DMSO in bidest) as reference for non-inhibited enzyme activity (100% Ctl; high values) and wells with inhibitor (E64 in bidest+1% DMSO, final concentration […]) as controls for background fluorescence (0% Ctl; low values). The analysis of the data was performed by calculating the percentage of fluorescence in the presence of test compound in comparison to the fluorescence of the vehicle control after subtracting the background fluorescence: (RFU(sample)−RFU(background))*100/(RFU(control)−RFU(background))
Data from these calculations were used to generate IC50 values for inhibition of Cathepsin K, respectively.

Chain of recombinant human DPPI (Cathepsin C) (P53634 231-394): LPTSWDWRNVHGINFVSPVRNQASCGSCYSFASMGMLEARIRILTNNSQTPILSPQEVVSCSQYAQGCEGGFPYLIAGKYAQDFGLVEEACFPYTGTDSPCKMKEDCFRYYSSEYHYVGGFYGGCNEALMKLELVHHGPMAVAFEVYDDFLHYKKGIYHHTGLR
Chain of recombinant human DPPI (Cathepsin C) (P53634 395-463): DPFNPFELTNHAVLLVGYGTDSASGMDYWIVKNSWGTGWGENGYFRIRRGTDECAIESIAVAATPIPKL
Chain of recombinant human DPPI (Cathepsin C) (P53634 25-134): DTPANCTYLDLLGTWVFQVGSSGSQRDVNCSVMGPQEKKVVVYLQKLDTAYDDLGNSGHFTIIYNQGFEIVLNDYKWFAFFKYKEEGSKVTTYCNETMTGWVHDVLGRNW
Chain of recombinant human Cathepsin K (P43235 115-329): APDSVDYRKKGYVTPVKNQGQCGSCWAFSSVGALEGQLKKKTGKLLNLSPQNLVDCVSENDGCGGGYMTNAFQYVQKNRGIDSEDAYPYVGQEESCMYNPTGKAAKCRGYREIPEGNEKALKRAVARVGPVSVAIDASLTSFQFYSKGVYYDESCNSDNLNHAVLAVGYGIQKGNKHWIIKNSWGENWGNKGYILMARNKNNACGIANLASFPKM

In the case of `CNS(=O)(=O)c1ccc(-c2ccc(C[C@@H](C#N)NC(=O)[C@H]3N[C@H]4C[C@@H]3[C@@H]3C[C@@H]34)c(F)c2)cc1` [Example 150], the IC50 stood at 38.6 nM in test [1] and 9300 nM in test [2].
With `CCc1ncc(-c2ccc(C[C@@H](C#N)NC(=O)[C@H]3N[C@@H]4CC[C@H]3C4)c(F)c2)s1` [Example 46], the IC50 amounted to 6.9 nM in test [1] and 4000 nM in test [2].
The matching figures for `COc1ncc(-c2cn(-c3ccc(C[C@@H](C#N)NC(=O)[C@H]4N[C@@H]5CC[C@H]4C5)c(F)c3)nn2)cn1` [Example 66]: 9.4 nM and 4800 nM.
The corresponding values for `COc1ccccc1-c1cn(-c2ccc(C[C@@H](C#N)NC(=O)[C@H]3N[C@@H]4CC[C@H]3C4)c(F)c2)nn1` [Example 119] are 51.2 nM and 4500 nM.
With `N#C[C@H](Cc1ccc(-c2csc(C(=O)N3CCN4CCOCC4C3)c2)cc1F)NC(=O)[C@H]1N[C@@H]2CC[C@H]1C2` (stereo partly drawn) [Example 234], the concentration for half-maximal inhibition (IC50) in test [1] came out at 3.8 nM; in test [2], 2900 nM.
With `COC(=O)c1cc(-c2ccc(C[C@@H](C#N)NC(=O)[C@H]3N[C@@H]4CC[C@H]3C4)c(F)c2)cs1` [Example 17], the IC50 was found to be 2.6 nM in test [1] and 6100 nM in test [2].
The corresponding values for `N#C[C@H](Cc1ccc(-c2ccsc2)cc1F)NC(=O)[C@H]1N[C@@H]2CC[C@H]1C2` [Example 18] are 2.7 nM and 3000 nM.
Turning to `Cc1n[nH]cc1-c1ccc(CC(C#N)NC(=O)[C@H]2N[C@@H]3CC[C@H]2C3)c(F)c1` (stereo partly drawn) [Example 104], the IC50 in test [1] amounted to 24.9 nM; in test [2], 10300 nM.
The matching figures for `Cn1ncc2ccc(-c3ccc(C[C@@H](C#N)NC(=O)[C@H]4N[C@H]5C[C@@H]4[C@@H]4C[C@@H]45)c(F)c3)cc21` [Example 70]: 10.2 nM and 12000 nM.
The matching figures for `N#C[C@H](Cc1ccc(-c2ccc(C(N)=O)cc2)cc1F)NC(=O)[C@H]1N[C@H]2C[C@@H]1[C@@H]1C[C@@H]12` [Example 130]: 43.5 nM and 10200 nM.
With `N#C[C@H](Cc1ccc(-c2cccc(S(N)(=O)=O)c2)cc1F)NC(=O)[C@H]1N[C@@H]2CC[C@H]1C2` [Example 37], the IC50 in test [1] was found to be 4.7 nM; in test [2], 5100 nM.
In the case of `CC(C)(C)n1cc(-c2ccc(C[C@@H](C#N)NC(=O)[C@H]3N[C@@H]4CC[C@H]3C4)c(F)c2)cn1` [Example 23], the IC50 in test [1] was 3.7 nM; in test [2] it was 3800 nM.
On to `N#CC(Cc1ccc2c(c1)c(=O)[nH]c1cc(Cl)ccc12)NC(=O)[C@H]1N[C@@H]2CC[C@H]1C2` (stereo partly drawn) [Example 297], for which the IC50 stood at 3.2 nM in test [1] and 12400 nM in test [2].
For `Cc1ncc(-c2ccc(C[C@@H](C#N)NC(=O)[C@H]3N[C@@H]4CC[C@H]3C4)c(F)c2)s1` [Example 25], the IC50 in test [1] is 3.9 nM; in test [2] it was 6300 nM.
The matching figures for `CCS(=O)(=O)c1ccc(-c2ccc(C[C@@H](C#N)NC(=O)[C@H]3N[C@H]4C[C@@H]3[C@@H]3C[C@@H]34)c(F)c2)cc1` [Example 151]: 36.9 nM and 4800 nM.
The corresponding values for `N#C[C@H](Cc1ccc(-c2ccc3c(c2)CC(=O)N3)cc1F)NC(=O)[C@H]1N[C@H]2C[C@@H]1[C@@H]1C[C@@H]12` [Example 134] are 17.8 nM and 6700 nM.
As for `Cn1c(=O)oc2cc(-c3ccc(CC(C#N)NC(=O)[C@H]4N[C@@H]5CC[C@H]4C5)c(F)c3)ccc21` (stereo partly drawn) [Example 107], the IC50 was found to be 25.9 nM in test [1] and 4700 nM in test [2].
The corresponding values for `N#C[C@H](Cc1ccc(-c2cnn(C(=O)C3CCOCC3)c2)cc1F)NC(=O)[C@H]1N[C@@H]2CC[C@H]1C2` [Example 74] are 11.4 nM and 2500 nM.
`CC(=O)c1ccc(-c2ccc(CC(C#N)NC(=O)[C@H]3N[C@@H]4CC[C@H]3C4)c(F)c2)s1` (stereo partly drawn) [Example 72]: the IC50 in test [1] came to 10.8 nM; in test [2], 7300 nM.
The corresponding values for `Cc1noc(C)c1-c1ccc(C[C@@H](C#N)NC(=O)[C@H]2N[C@@H]3CC[C@H]2C3)c(F)c1` [Example 121] are 156 nM and 5200 nM.
For `CC(O)Cc1cn(-c2ccc(C[C@@H](C#N)NC(=O)[C@H]3N[C@@H]4CC[C@H]3C4)c(F)c2)nn1` (stereo partly drawn) [Example 101], the IC50 came to 23.9 nM in test [1] and 6500 nM in test [2].
The matching figures for `N#C[C@H](Cc1ccc(-c2cccs2)cc1F)NC(=O)[C@H]1N[C@@H]2CC[C@H]1C2` [Example 36]: 4.7 nM and 3000 nM.
The matching figures for `N#CC(Cc1ccc(-c2ccc3c(c2)CC(=O)N3)cc1F)NC(=O)[C@H]1N[C@@H]2CC[C@H]1C2` (stereo partly drawn) [Example 79]: 12 nM and 3500 nM.
On to `Cc1ccc(-c2ccc(C[C@@H](C#N)NC(=O)[C@H]3N[C@@H]4CC[C@H]3C4)c(F)c2)o1` [Example 27], for which the IC50 in test [1] came to 4 nM; in test [2], 3200 nM.
As for `N#C[C@H](Cc1ccc(-c2ccc3c(c2)C(=O)OC3)cc1F)NC(=O)[C@H]1N[C@@H]2CC[C@H]1C2` [Example 34], the IC50 in test [1] was determined as 4.6 nM; in test [2], 2500 nM.
Consider `N#C[C@H](Cc1ccc(N2CCN(c3ccccc3)CC2)cc1F)NC(=O)[C@H]1N[C@@H]2CC[C@H]1C2` [Example 32, (1S,2S,4R)—N-[(1S)-1-cyano-2-[2-fluoro-4-(4-phenylpiperazin-1-yl)phenyl]ethyl]-3-azabicyclo[2.2.1]heptane-2-carboxamide], for which the IC50 in test [1] worked out at 4.5 nM; in test [2], 3900 nM.
The corresponding values for `N#CC(Cc1ccc(-c2ccc(S(N)(=O)=O)cc2)cc1F)NC(=O)[C@H]1N[C@@H]2CC[C@H]1C2` (stereo partly drawn) [Example 56] are 8.3 nM and 4000 nM.
The corresponding values for `N#C[C@H](Cc1ccc(-c2ccccc2)cc1F)NC(=O)[C@H]1N[C@@H]2CC[C@H]1C2` [Example 75] are 11.4 nM and 5300 nM.
The corresponding values for `N#C[C@H](Cc1ccc(-c2cn[nH]c2)cc1F)NC(=O)[C@H]1N[C@@H]2CC[C@H]1C2` [Example 69] are 9.9 nM and 2400 nM.
On to `N#C[C@H](Cc1ccc(-c2ccc(Cl)nc2)cc1F)NC(=O)[C@H]1N[C@H]2C[C@@H]1[C@@H]1C[C@@H]12` [Example 145], for which the IC50 came to 53.8 nM in test [1] and 7400 nM in test [2].
The corresponding values for `CN1C(=O)Cc2ccc(-c3cc(F)c(CC(C#N)NC(=O)[C@H]4N[C@@H]5CC[C@H]4C5)c(F)c3)cc21` (stereo partly drawn) [Example 61] are 8.7 nM and 10900 nM.
Consider `CC(=O)n1nc(-c2ccc(CC(C#N)NC(=O)[C@H]3N[C@@H]4CC[C@H]3C4)c(F)c2)cc1C` (stereo partly drawn) [Example 7, (1S,2S,4R)—N-[2-[4-(1-acetyl-5-methyl-pyrazol-3-yl)-2-fluoro-phenyl]-1-cyano-ethyl]-3-azabicyclo[2.2.1]heptane-2-carboxamide], for which the IC50 in test [1] turned out to be 1.9 nM; in test [2], 8000 nM.
For `N#C[C@H](Cc1ccc(-c2ccc(C(=O)N3CCn4nccc4C3)s2)cc1F)NC(=O)[C@H]1N[C@@H]2CC[C@H]1C2` [Example 237], the IC50 in test [1] stood at 4.6 nM; in test [2], 1900 nM.
For `Cn1cc(-c2ccc(C[C@@H](C#N)NC(=O)[C@H]3N[C@@H]4CC[C@H]3C4)c(F)c2)c(C(F)(F)F)n1` [Example 118], the IC50 in test [1] stood at 44.3 nM; in test [2], 3900 nM.
The matching figures for `CS(=O)(=O)c1ccc(-c2ccc(C[C@@H](C#N)NC(=O)[C@H]3N[C@H]4C[C@@H]3[C@@H]3C[C@@H]34)c(F)c2)cc1` [Example 141]: 36.6 nM and 8800 nM.
On to `N#C[C@H](Cc1ccc(-n2cc(-c3ccc4occc4c3)nn2)cc1F)NC(=O)[C@H]1N[C@@H]2CC[C@H]1C2` [Example 84], for which the IC50 in test [1] is 13.7 nM; in test [2] it was 4900 nM.
